According to paper PMC6550521, “Stress-Induced Changes in the Lipid Microenvironment of β-(1,3)-D-Glucan Synthase Cause Clinically Important Echinocandin Resistance in Aspergillus fumigatus” (mBio, 2019):
Starred links: 1 amine or outer side, 2 acyl side, 3 side chain; linkers in the order of their positions; H or OH if unused. Positions of bridges follow the written chain, without caps; N, C: chain ends. Non-standard residues stand in square brackets, D forms with d. Residues, ends and D or L forms follow the SMILES beside them. *: point of attachment. Orn(4R-OH,5R-OCH2CH2NMe3+) = C[N+](C)(C)CCO[C@@H](N[*:3])[C@H](O)C[C@H](N[*:1])C(=O)[*:2]; hTyr(3S-OH,4S-OH,3'-OSO3H) = N[C@H](C(=O)O)[C@H](O)[C@@H](O)c1ccc(O)c(OS(=O)(=O)O)c1; pTerphenylCO(4''-OnC5H11) = CCCCCOc1ccc(-c2ccc(-c3ccc(C(=O)*)cc3)cc2)cc1; Orn(4R-OH,5R-OH) = O=C([C@H](C[C@@H](O)[C@@H](O)N[*:3])N[*:1])[*:2]; hTyr(3S-OH,4S-OH) = N[C@H](C(=O)O)[C@H](O)[C@@H](O)c1ccc(O)cc1; Pro(3S-OH,4S-Me) = C[C@H]1CN[C@H](C(=O)O)[C@H]1O; X1 = CCCCCOc1ccc(-c2cc(-c3ccc(C(=O)*)cc3)no2)cc1; Gln(3R-OH) = NC(=O)C[C@@H](O)[C@H](N)C(=O)O; Hyp = O=C(O)[C@@H]1C[C@@H](O)CN1

What was measured:
[1] = system: A. fumigatus RG101; type: cell-based, Aspergillus fumigatus; details: for Growth phenotype of RG101 with drug alone: 1 μg/ml drug, RPMI 1640, absence of CAS; for Growth phenotype of RG101 with drug alone / Drug susceptibility testing result, RG101: 24 h; for Drug susceptibility testing result, RG101: Fig 1B
Description: The following drugs (supplier) were tested: caspofungin (Merck & Co., Inc.), micafungin (Astellas Pharma US, Inc.), anidulafungin (Pfizer Inc.), itraconazole (Sigma-Aldrich), voriconazole (Pfizer Inc.), and amphotericin B (Sigma-Aldrich). In addition, rezafungin and ibrexafungerp were obtained from Cidara Therapeutics and Scynexis Inc., respectively.

[2] = system: A. fumigatus ATCC 13073; test: Antifungal susceptibility testing (MEC, CLSI M38-A2); type: cell-based, Aspergillus fumigatus; details: for Drug susceptibility testing result, ATCC 13073: 24 h, Fig 1B
Description: (§1) Minimum effective concentrations (MECs) for A. fumigatus strains were determined according to CLSI document M38-A2 ([48]) and defined as the lowest drug concentration that led to the growth of small, rounded, compact hyphal forms compared to the hyphal growth seen in the drug-free growth control wells. The following drugs (supplier) were tested: caspofungin (Merck & Co., Inc.), micafungin (Astellas Pharma US, Inc.), anidulafungin (Pfizer Inc.), itraconazole (Sigma-Aldrich), voriconazole (Pfizer Inc.), and amphotericin B (Sigma-Aldrich). In addition, rezafungin and ibrexafungerp were obtained from Cidara Therapeutics and Scynexis Inc., respectively.

[3] = system: A. fumigatus RG101; test: Acute pulmonary aspergillosis model in neutropenic DBA/2 mice, lung fungal burden by qPCR; type: in vivo, Aspergillus fumigatus
Description: Resistance of RG101 to CAS in vivo was tested in an acute pulmonary aspergillosis model. Thirty inbred DBA/2 mice were rendered neutropenic and infected with 1 × 10^6 RG101 conidia intratracheally. The mice were then treated with CAS (5 mg/kg of body weight), MFG (5 mg/kg), or vehicle daily for 5 days, and lung burdens were determined using quantitative PCR (qPCR). Details of the experiment are provided in Text S1 in the supplemental material.
All animal experiments performed were approved by the Rutgers University Institutional Animal Care and Use Committee. Thirty female DBA/2 mice [The Jackson Laboratory, Bar Harbor, ME] were used in the experiment. The mice were housed in cages equipped with HEPA filters and were allowed free access to food and water. To establish neutropenia, mice were immunosuppressed with cyclophosphamide on days -4 (150 mg/kg), -1 and +2 (100 mg/kg) intraperitoneally (ip) and hydrocortisone on day -1 (200 mg/kg) via subcutaneous injection (sc). The animals were given prophylaxis sc ceftazidime (50 mg/kg) on all days to prevent secondary bacterial infections. A. fumigatus RG101 was streaked out from a frozen glycerol stock and cultured on Potato dextrose agar (PDA) slant for 2 days. The spores were harvested in phosphate-buffered saline (PBS) with 0.05% (v/v) Tween 20 and counted in a hemocytometer. The mice were briefly anesthetized IP Ketamine (65 mg/kg)/Xylazine (5 mg/kg) and infected with 1×10^6 spores of RG101 in 25 µL volume via intratracheal instillation. The 30 RG101 infected mice were randomized into following treatment arms for IP treatment: vehicle, CAS (5 mg/kg), and MFG (5 mg/kg). The first treatment was given at 3 h post infection (PI) and continued daily treatments were administered. On day 5 PI, mice were humanely euthanized via CO2 narcosis. Lungs were excised and homogenized in 1 ml of sterile PBS using a 2 ml tube containing ceramic spheres by MP Biomedicals (116913500). Tissue was then homogenized in 20 s bursts in a mini bead beater (MP FastPrep-24) followed by cooling on ice. DNA was then isolated from an aliquot of the lung homogenate (100 μl) using the QIAamp DNA Mini Kit by Qiagen (51304) and analyzed by real-time quantitative PCR (qPCR) using primers specific for A. fumigatus 18S rRNA genes (Wiederhold et al 2004).

[4] = system: A. fumigatus S679P (fks1 Ser-679-Pro mutant); test: Antifungal susceptibility testing (MEC, CLSI M38-A2); type: cell-based, Aspergillus fumigatus
Description: as §1

[5] = target: β-(1,3)-D-glucan synthase of RG101 (Aspergillus fumigatus, UniProt Q4WLT4); test: Glucan synthase kinetic inhibition assay, enzyme from RG101; type: biochemical; details: enzyme from RG101 grown at 4 μg/ml CAS
Description: ATCC 13073 or RG101 was grown in liquid YPD medium at 37°C for 16 h. Partially purified glucan synthase was isolated by the product entrapment method, as previously described ([21]). Sensitivity to echinocandin drugs was measured by glucan synthase assay, using a 96-well multiscreen high-throughput screen filtration system (Millipore Corporation, Bedford, MA) in a final volume of 100 μl. Inhibition of the enzyme by the drug was analyzed after incubation of the enzyme with a radioactive substrate over a broad range of concentrations (0 to 10,000 ng/ml) of echinocandins for 1 h at room temperature. Radioactivity from the enzyme product, β-(1,3)-D-glucan, was measured. Inhibition profiles were determined using a sigmoidal response curve fitting algorithm with GraphPad Prism software (v 7.04).
To study the effect of lipids on the enzyme, dihydrosphingosine, phytosphingosine, or phytoceramide C2 (Sigma-Aldrich D6783, P2795, and C8105, respectively) was added directly to the assay mixture and coincubated with an echinocandin for 1 h at room temperature.

[6] = system: Aspergillus fumigatus clinical isolate 117; test: Antifungal susceptibility testing (MEC, CLSI M38-A2); type: cell-based; details: clinical isolate 117, fks1 WT
Description: as §1

[7] = system: Aspergillus fumigatus clinical isolate 32315; test: as above; type: cell-based; details: clinical isolate 32315, fks1 WT
Description: as §1

[8] = system: Aspergillus fumigatus clinical isolate 68284B; test: as above; type: cell-based; details: fks1 WT
Description: as §1

[9] = system: Aspergillus fumigatus clinical isolate 2770; test: as above; type: cell-based; details: clinical isolate 2770, fks1 WT
Description: as §1

[10] = system: Aspergillus fumigatus clinical isolate 32458; test: as above; type: cell-based; details: clinical isolate 32458, fks1 WT
Description: as §1

[11] = system: reactive oxygen species (ROS) in A. fumigatus RG101; test: ROS production, DCFDA fluorescence assay; type: cell-based, Aspergillus fumigatus; details: RG101
Description: ROS production in mycelia was measured using a protocol previously described by Blatzer et al. ([51]) with a few changes. Suspensions of 10^4 spores/ml of ATCC 13073 and RG101 were grown in static culture in complete supplement mixture (CSM) medium for 16 h in a 96-well microplate at 37°C. After incubation, the mycelia were washed once with CSM, 10 μM 2′,7′–dichlorofluorescin diacetate (DCFDA) dye was added, and cells were incubated in the dark at 37°C for 30 min. Cells were then washed three times with phosphate-buffered saline (PBS), and a final concentration of 1 μg/ml of each echinocandin in CSM medium was added to different wells. Fluorescence intensity (excitation at 485 nm and emission at 530 nm) was measured for 1 h in a microplate reader (Tecan Infinite M200 Pro). Mycelia stained with DCFDA without any drug were used as a control.

[12] = thiourea 15 mM with CAS 1 μg/ml

Sequence of β-(1,3)-D-glucan synthase of RG101 (Q4WLT4 1-1904): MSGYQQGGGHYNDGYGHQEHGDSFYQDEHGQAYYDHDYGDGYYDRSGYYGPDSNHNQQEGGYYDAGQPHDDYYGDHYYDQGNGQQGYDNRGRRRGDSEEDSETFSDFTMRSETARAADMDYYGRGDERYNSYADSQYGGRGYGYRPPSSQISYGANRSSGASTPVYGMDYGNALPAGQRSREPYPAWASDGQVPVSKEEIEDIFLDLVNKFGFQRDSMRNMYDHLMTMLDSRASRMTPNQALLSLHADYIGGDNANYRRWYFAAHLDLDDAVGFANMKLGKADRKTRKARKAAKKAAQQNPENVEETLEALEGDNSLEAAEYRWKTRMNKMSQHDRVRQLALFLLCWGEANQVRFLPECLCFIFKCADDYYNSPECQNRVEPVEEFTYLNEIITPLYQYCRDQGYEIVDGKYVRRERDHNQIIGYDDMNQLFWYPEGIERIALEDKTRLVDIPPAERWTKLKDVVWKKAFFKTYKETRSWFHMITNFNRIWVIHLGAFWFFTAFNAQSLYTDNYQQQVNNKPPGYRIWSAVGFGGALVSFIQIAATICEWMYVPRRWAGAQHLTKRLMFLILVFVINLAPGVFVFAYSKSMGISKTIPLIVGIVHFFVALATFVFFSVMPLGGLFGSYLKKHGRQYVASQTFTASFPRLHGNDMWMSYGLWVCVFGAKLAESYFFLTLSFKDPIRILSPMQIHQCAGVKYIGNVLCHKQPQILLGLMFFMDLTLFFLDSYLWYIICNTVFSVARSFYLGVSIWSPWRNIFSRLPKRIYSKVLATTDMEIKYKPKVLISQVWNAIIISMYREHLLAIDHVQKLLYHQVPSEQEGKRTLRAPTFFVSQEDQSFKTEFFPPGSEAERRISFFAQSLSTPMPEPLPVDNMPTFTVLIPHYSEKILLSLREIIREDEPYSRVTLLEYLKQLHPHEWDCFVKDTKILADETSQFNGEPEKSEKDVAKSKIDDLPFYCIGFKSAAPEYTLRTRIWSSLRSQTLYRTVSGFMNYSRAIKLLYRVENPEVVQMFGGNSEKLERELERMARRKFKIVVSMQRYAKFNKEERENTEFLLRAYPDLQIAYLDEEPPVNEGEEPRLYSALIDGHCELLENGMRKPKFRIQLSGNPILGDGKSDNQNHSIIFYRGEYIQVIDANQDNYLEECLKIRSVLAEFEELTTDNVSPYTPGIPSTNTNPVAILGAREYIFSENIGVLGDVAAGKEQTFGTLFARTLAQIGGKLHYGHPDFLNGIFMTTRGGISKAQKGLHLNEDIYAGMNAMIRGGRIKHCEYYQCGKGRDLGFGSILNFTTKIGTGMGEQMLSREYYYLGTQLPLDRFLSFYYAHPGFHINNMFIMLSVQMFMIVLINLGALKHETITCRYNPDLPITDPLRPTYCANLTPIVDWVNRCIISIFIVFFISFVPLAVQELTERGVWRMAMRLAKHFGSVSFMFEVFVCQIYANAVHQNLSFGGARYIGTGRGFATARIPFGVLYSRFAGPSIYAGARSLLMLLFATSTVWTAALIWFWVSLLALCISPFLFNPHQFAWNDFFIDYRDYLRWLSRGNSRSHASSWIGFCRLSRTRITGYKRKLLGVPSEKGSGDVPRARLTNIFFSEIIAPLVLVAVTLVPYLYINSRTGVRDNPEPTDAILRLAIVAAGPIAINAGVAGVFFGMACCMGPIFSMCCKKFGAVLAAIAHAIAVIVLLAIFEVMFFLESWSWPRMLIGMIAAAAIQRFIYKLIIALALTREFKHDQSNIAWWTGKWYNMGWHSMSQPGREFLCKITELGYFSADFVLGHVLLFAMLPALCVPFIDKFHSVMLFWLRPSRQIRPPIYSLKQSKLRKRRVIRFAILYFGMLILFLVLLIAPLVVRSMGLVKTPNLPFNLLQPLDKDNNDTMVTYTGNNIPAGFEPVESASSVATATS

CCCCCOc1ccc(-c2ccc(-c3ccc(C(=O)N[C@H]4C[C@@H](O)[C@@H](O)NC(=O)[C@@H]5[C@@H](O)[C@@H](C)CN5C(=O)[C@H]([C@@H](C)O)NC(=O)[C@H]([C@H](O)[C@@H](O)c5ccc(O)cc5)NC(=O)[C@@H]5C[C@@H](O)CN5C(=O)[C@H]([C@@H](C)O)NC4=O)cc3)cc2)cc1 [ANF, anidulafungin] ({pTerphenylCO(4''-OnC5H11)}-[Orn(4R-OH,5R-OH)]T[Hyp][hTyr(3S-OH,4S-OH)]T[Pro(3S-OH,4S-Me)]; lactam 1-C)
Growth phenotype of RG101 with drug in combination with CAS [1]: cross-resistance
Growth phenotype of RG101 with drug alone [1]: sensitive
Drug susceptibility testing result, RG101 [1]: 0.03 µg/mL
Drug susceptibility testing result, ATCC 13073 [2]: 0.03 µg/mL

C[C@@H]1[C@H](O)[C@@H](C)/C=C/C=C/C=C/C=C/C=C/C=C/C=C/[C@H](O[C@@H]2O[C@H](C)[C@@H](O)[C@H](N)[C@@H]2O)C[C@@H]2O[C@](O)(C[C@@H](O)C[C@@H](O)[C@H](O)CC[C@@H](O)C[C@@H](O)CC(=O)O[C@H]1C)C[C@H](O)[C@H]2C(=O)O [Amphotericin B, amphotericin B]
Drug susceptibility testing result, RG101 [1]: 0.5 µg/mL
Drug susceptibility testing result, ATCC 13073 [2]: 0.5 µg/mL

CC(C)[C@@H](C)[C@@]1(C)CC[C@]2(C)[C@H]3CC[C@@H]4[C@@]5(COC[C@@]4(C)[C@@H](OC[C@](C)(N)C(C)(C)C)[C@H](n4ncnc4-c4ccncc4)C5)C3=CC[C@@]2(C)[C@@H]1C(=O)O [IFG, ibrexafungerp]
Growth phenotype of RG101 with drug in combination with CAS [1]: cross-resistance
Growth phenotype of RG101 with drug alone [1]: sensitive

CCC(C)n1ncn(-c2ccc(N3CCN(c4ccc(OCC5COC(Cn6cncn6)(c6ccc(Cl)cc6Cl)O5)cc4)CC3)cc2)c1=O (stereo not drawn) [Itraconazole, itraconazole]
Drug susceptibility testing result, RG101 [1]: 0.5 µg/mL
Drug susceptibility testing result, ATCC 13073 [2]: 0.5 µg/mL

CCCCCOc1ccc(-c2cc(-c3ccc(C(=O)N[C@H]4C[C@@H](O)[C@@H](O)NC(=O)[C@@H]5[C@@H](O)[C@@H](C)CN5C(=O)[C@H]([C@H](O)CC(N)=O)NC(=O)[C@H]([C@H](O)[C@@H](O)c5ccc(O)c(OS(=O)(=O)O)c5)NC(=O)[C@@H]5C[C@@H](O)CN5C(=O)[C@H]([C@@H](C)O)NC4=O)cc3)no2)cc1 [MFG, micafungin] (X1-[Orn(4R-OH,5R-OH)]T[Hyp][hTyr(3S-OH,4S-OH,3'-OSO3H)][Gln(3R-OH)][Pro(3S-OH,4S-Me)]; lactam 1-C)
Decrease in lung burden versus vehicle-treated group ([3]; RG101, 5 mg/kg daily for 5 days): ~5 fold
Average fungal lung burden ([3]; RG101 intratracheal, 5 mg/kg daily IP for 5 days, qPCR): 5.2 ng fungal DNA per lung
Growth phenotype of RG101 with drug in combination with CAS [1]: cross-resistance
Growth phenotype of RG101 with drug alone [1]: sensitive
Drug susceptibility testing result, RG101 [1]: 0.03 µg/mL
Drug susceptibility testing result, ATCC 13073 [2]: 0.03 µg/mL
MEC (minimum effective concentration) ([2]; ATCC 13073, fks1 WT): 0.03 µg/mL
MEC (minimum effective concentration) ([4]; S679P, fks1 Ser-679-Pro): 16 µg/mL
IC50 [5]: > 7.87 µM
MEC (minimum effective concentration) [6]: 4 µg/mL
MEC (minimum effective concentration) [7]: 2 µg/mL
MEC (minimum effective concentration) [8]: 4 µg/mL
MEC (minimum effective concentration) [9]: 2 µg/mL
MEC (minimum effective concentration) [10]: 2 µg/mL

CCCCCOc1ccc(-c2ccc(-c3ccc(C(=O)N[C@H]4C[C@@H](O)[C@@H](OCC[N+](C)(C)C)NC(=O)[C@@H]5[C@@H](O)[C@@H](C)CN5C(=O)[C@H]([C@@H](C)O)NC(=O)[C@H]([C@H](O)[C@@H](O)c5ccc(O)cc5)NC(=O)[C@@H]5C[C@@H](O)CN5C(=O)[C@H]([C@@H](C)O)NC4=O)cc3)cc2)cc1 [RZF, rezafungin] ({pTerphenylCO(4''-OnC5H11)}-[Orn(4R-OH,5R-OCH2CH2NMe3+)]T[Hyp][hTyr(3S-OH,4S-OH)]T[Pro(3S-OH,4S-Me)]; lactam 1-C)
Growth phenotype of RG101 with drug in combination with CAS [1]: cross-resistance
Growth phenotype of RG101 with drug alone [1]: sensitive

C[C@@H](c1ncncc1F)[C@](O)(Cn1cncn1)c1ccc(F)cc1F [Voriconazole, voriconazole]
Drug susceptibility testing result, RG101 [1]: 0.12 µg/mL
Drug susceptibility testing result, ATCC 13073 [2]: 0.12 µg/mL

CCCCCC[C@H]1C(=O)O[C@H](C)[C@H](NC(=O)c2cccc(NC=O)c2O)C(=O)O[C@@H](C)[C@@H]1OC(=O)CC(C)C [antimycin A]
Decrease of CAS-induced ROS production ([11]; 0.5 μg/ml antimycin A): over 2 fold

NC(N)=S [thiourea]
Effect on CAS-induced breakthrough resistance phenotype of RG101 [1, 12]: reversed
Reduction of CAS-induced ROS levels ([11]; 15 mM thiourea): 4 fold
Effect on CAS phenotype of ATCC 13073 [2, 12]: no change
Effect on CAS resistance of S679P [4, 12]: no effect
